Laboratory results: patent US8426649B2, “Cyclopropenones and the photochemical generation of cyclic alkynes therefrom” (University of Georgia Research Foundation, Inc., priority 2009, dated 2013)
Like-named read-outs stand apart in the source and are kept apart here.

Experiments:
[1] = literature values (Baskin 2007; Ning/Boons 2008), cited from earlier work
[2] = tested on: Jurkat cells; test: Cell surface labeling detected by fluorescence intensity of cell lysates (avidin-FITC); format: cell-based, Human; conditions: for Incubation time at which labeling was reaching completion: time course
Description: Having established that light activation of cyclopropenones results in the clean formation of the corresponding dibenzocyclooctynes, which can undergo cycloadditions with azides (e.g., metal-free cycloadditions in preferred embodiments) to give corresponding triazoles, attention was focused on labeling living cell modified with azido groups. Thus, Jurkat cells were cultured in the presence of […] of peracetylated N-azidoacetylmannosamine (Ac4ManNAz) for 3 days to metabolically introduce N-azidoacetyl-sialic acid (SiaNAz) groups into glycoproteins and glycolipids. As a negative control, Jurkat cells were employed that were grown in the presence of peracetylated N-acetylmannosamine (Ac4ManNAc). The cells were exposed to 30 micromolar of compound 4b, 5b, and 6b for 1 hour at room temperature. In addition, cells and cyclopropenone 5b were exposed to light (350 nm) for 1 minute to form in-situ cyclooctyne 6b and then incubated for 1 hour at room temperature. Next, the cells were washed and stained with avidin-fluorescein isothiocyanate (FITC) for 15 minutes at 4° C. The efficiency of the two-step cell surface labeling was determined by measuring the fluorescence intensity of the cell lysates.
Jurkat cells were cultured in the presence of […] of peracetylated N-azidoacetylmannosamine (Ac4ManNAz) for 3 days to metabolically introduce N-azidoacetyl-sialic acid (SiaNAz) groups into glycoproteins. As a negative control, Jurkat cells were employed that were grown in the presence of peracetylated N-acetylmannosamine (Ac4ManNAc). The cells were exposed to 30 micromoles of compound 4b, 5b, and 6b for 1 hour at 37° C. In addition, cells and cyclopropenone 5b were exposed to light (350 nm) for 1 minute to form in-situ cyclooctyne 6b and then incubated for 1 hour at 37° C. Next, the cells were washed and stained with avidin-fluorescein isothiocyanate (FITC) for 15 minutes at 4° C. and the efficiency of the two-step cell surface labeling was determined by measuring the fluorescence intensity of the cell lysates.
Jurkat cells were seeded at a density of 75,000 cells mL^−1 in a total volume of 40 mL culture medium in the presence of peracetylated N-azidoacetylmannosamine (Ac4ManNaz; 25 micromolar final concentration) and grown for 3 days, leading to the metabolic incorporation of the corresponding N-azidoacetyl sialic acid (SiaNAz) into their cell surface glycoproteins. Control cells were grown in the presence of peracetylated N-acetylmannosamine (Ac4ManNac; 25 micromolar final concentration) for 3 days. Similarly, CHO cells were grown for 3 days in the presence of Ac4ManNaz (100 micromolar final concentration) or Ac4ManNac (100 micromolar final concentration).
Jurkat cells bearing azides and control cells were washed with labeling buffer (DPBS, pH 7.4 containing 1% FBS and 1% BSA), transferred to round bottom tubes (1×10^6 cells/sample) and incubated with the biotinylated compounds 4b, 5b, or 6b (0-100 micromolar) in labeling buffer for 0-90 minutes at room temperature. To activate 5b in situ, immediately after adding the compound to the cells, the cell suspension was subjected to UV light (350 nm) for 1 minute. The cells were washed three times with cold labeling buffer and then incubated with avidin conjugated with fluorescein (0.5 microgram/ml; Molecular Probes) for 15 minutes at 4° C. Following three washes and cell lysis in passive lysis buffer (Promega), cell lysates were analysed for fluorescence intensity (485 ex/520 em) using a microplate reader (BMG Labtech). Data points were collected in triplicate and are representative of three separate experiments. Fluorescence of Jurkat cell lysates was expressed as fluorescence (arbitrary units; AU) per 800,000 cells.

[3] = tested on: Jurkat cells; test: Western blot analysis of cell surface labeling; format: cell-based, Human; conditions: 30 micromolar, 1 hour; 5b in-situ activated
Description: To identify the nature of the azide-labeled Jurkat glycoconjugates, cell lysates were analyzed by Western blot analysis (FIG. 8). Jurkat cells grown for 3 days in the presence of Ac4ManNAc or Ac4ManNAz were incubated with compounds in-situ activated 5b or 6b (30 micromolar) and then lysed. The Western blot was probed with an anti-biotin antibody conjugated to horseradish peroxidase (HRP). […] Furthermore, similar patterns of labeling were apparent after incubation with in-situ activated 5b and 6b.
Jurkat cells were harvested by centrifugation (5 minutes at 1,400 rpm) and resuspended as 5×10^6 cells/mL. The cell suspensions (250 microliters per sample) were incubated with biotin-conjugated alkynes 4b, 5b, and 6b (30 micromolar) or without compound as control for 1 hour. To activate 5b in situ, immediately after adding the compound to the cells, the cell suspension was subjected to UV light (350 nm) for 1 minute. The cells were washed (4×10 minutes) with cold DPBS, pH 7.4 containing FBS (1%) and lysed in passive lysis buffer. The cell lysates were clarified by centrifugation at 15,000 rpm for 15 minutes and the total protein content of the clear supernatants was assessed using the bicinchonic acid assay (BCA; Pierce Biotechnology). […]

[4] = tested on: Jurkat cells; test: Measurement of cytotoxicity (trypan blue exclusion, MTT); format: cell-based, Human
Description: Cell viability was also examined after incubation with 5b with and without light activation followed by reincubation for 5 hours (see Examples). In both cases, the ability of the cells to reduce MTT to its insoluble formazan salt was […].
Cell viability and cell morphology were assessed by exclusion of trypan blue followed microscopic evaluation immediately after photoactivation or after reincubation of the labeled cells in cell culture medium for 5 hours or overnight. Viability was measured by quantifying the cellular ability to reduce the water-soluble tetrazolium dye 3-4,5-dimethylthiazole-2,5-diphenyl tetrazolium bromide (MTT) to its insoluble formazan salt (e.g., Sgouras et al., J. Mater. Sci.: Materials in Medicine 1990, 1:61-68). Data points were collected in triplicate and expressed as normalized values for control cells (100%).

[5] = tested on: CHO cells; test: Detection of cell labeling by fluorescence microscopy; format: cell-based, Chinese hamster
Description: Next, attention was focused on visualizing azido-containing glycoconjugates of living cells by confocal microscopy. Thus, adherent Chinese hamster ovary (CHO) cells were cultured in the presence of Ac4ManNAz (100 μM) for three days. The resulting cell surface azido groups were reacted with in situ generated 6b (30 μM) and then visualized with avidin-Alexa fluor 488.
CHO cells bearing azides and untreated control cells were transferred to glass coverslips and cultured for 36 hours in their original medium. Live CHO cells were treated with the biotinylated compound 5b (30 micromolar) in labeling buffer (DPBS, supplemented with FBS (1%)) for 1 hour at room temperature. To activate 5b in situ, immediately after adding the compound to the cells, the cells were subjected to UV light (350 nm) for 1 minute. Next, the cells were incubated with avidin conjugated with Alexa Fluor 488 (Molecular Probes) for 15 minutes at 4° C. Cells were washed 3 times with labeling buffer and fixed with formaldehyde (3.7% in PBS). The nucleus was labeled with the far red-fluorescent TO-PRO-3 dye (Molecular Probes). The cells were mounted with PermaFluor (Thermo Electron Corporation) before imaging. Initial analysis was performed on a Zeiss Axioplan2 fluorescent microscope. […] The step size, based on the calculated optimum for each objective, was between 0.25 and 0.5 micrometers. […]

[6] = 30 micromolar, 1 hour, room temperature, cells grown with Ac4ManNAz
[7] = 30 micromoles, 1 hour at 37° C., cells grown with Ac4ManNAz

SMILES: O=C(O)COC1CCC#CC(F)(F)CC1 (centres unmarked) [2-[(6,6-difluoro-4-cyclooctyn-1-yl)oxy]-acetic acid]
- Reported rate of the reaction of cyclooctynes with benzyl azide [1]: 0.076 M⁻¹ s⁻¹

SMILES: OC1Cc2ccccc2C#Cc2ccccc21 (centres unmarked) [4a, 11,12-didehydro-5,6-dihydro-dibenzo[a,e]cycloocten-5-ol]
- Reported rate of the reaction of cyclooctynes with benzyl azide ([1]; listed as 11,12-didehydro-5,6-dihydro-dibenzo[a,e]cycloocten-5-ol): 0.0568 M⁻¹ s⁻¹
- Reported rate of the reaction of cyclooctynes with benzyl azide [1]: 0.17 M⁻¹ s⁻¹

SMILES: O=C(CCCC[C@@H]1SC[C@@H]2NC(=O)N[C@@H]21)NCCOCCOCCOCCNC(=O)OC1Cc2ccccc2C#Cc2ccccc21 (stereo partly drawn) [4b, 11,12-didehydro-5,6-dihydrodibenzo[a,e]cycloocten-5-yl ester of 19-[(3aS,4S,6aR)-hexahydro-2-oxo-1H-thieno[3,4-d]imidazol-4-yl]-15-oxo-5,8,11-trioxa-2,14-diazanonadecanoic acid, reference compound]
- Cell surface labeling (fluorescence intensity of cell lysates) [2, 6]: strong labeling
- Cell surface labeling (fluorescence intensity of cell lysates) [2, 7]: strong labeling
- Incubation time at which labeling was reaching completion ([2]; 30 micromolar): 60 min

SMILES: CCCCOc1ccc2c(c1)CCc1cc(OCCOCCOC(=O)NCCOCCOCCNC(=O)CCCCC3SCC4NC(=O)NC43)ccc1-c1c-2c1=O (centres unmarked) [5b, 2-{2-[(9-Butoxy-1-oxo-6,7-dihydro-1H-dibenzo[a,e]cyclopropa-[c][8]annulen-4-yl)oxy]ethoxy}ethyl {2-[2-(2-{[5-(2-oxohexahydro-1H-thieno[3,4-d]imidazol-4-yl)pentanoyl]amino}ethoxy)ethoxy]ethyl}carbamate]
- Cell surface labeling (fluorescence intensity of cell lysates) [2, 7]: strong labeling
- Cell surface labeling (fluorescence intensity of cell lysates) ([2]; in the dark (no activation), 30 micromolar, 1 hour, room temperature): low fluorescence intensities
- Cell surface labeling (fluorescence intensity of cell lysates) ([2]; in the dark (no activation), 1 hour at 37° C.): low fluorescence intensities
- Cell surface labeling (fluorescence intensity of cell lysates) ([2]; in-situ activation, 350 nm 1 minute, then 1 hour at 37° C.): equally efficient cell labeling
- Cell surface labeling (fluorescence intensity of cell lysates) ([2]; in-situ activation, 350 nm 1 minute, then 1 hour at room temperature, 30 micromolar): equally efficient cell labeling
- Glycoprotein labeling on Western blot (anti-biotin-HRP) [3]: Significant glycoprotein labeling was only observed in lysates from cells grown in the presence of Ac4ManNAz
- Cell viability and morphology (trypan blue exclusion) ([4]; 30 micromolar 5b with and without UV light activation (1 minute at 350 nm)): no changes were observed
- Ability of the cells to reduce MTT to formazan ([4]; with and without light activation, reincubation for 5 hours): negligible
- Staining (confocal microscopy, avidin-Alexa fluor 488) ([5]; in the dark, cells metabolically labeled with ManNAz): negligible staining

SMILES: CCCCOc1ccc2c(c1)CCc1cc(OCCOCCOC(=O)NCCOCCOCCNC(=O)CCCCC3SCC4NC(=O)NC43)ccc1C#C2 (centres unmarked) [6b, 2-{2-[(9-Butoxy-5,6-didehydro-11,12-dihydrodibenzo[a,e][8]annulen-2-yl)oxy]ethoxy}ethyl {2-[2-(2-{[5-(2-oxohexahydro-1H-thieno[3,4-d]imidazol-4-yl)pentanoyl]amino}ethoxy)ethoxy]ethyl}carbamate]
- Cell surface labeling (fluorescence intensity of cell lysates) [2, 6]: strong labeling
- Fluorescent reading compared with 4b ([2]; at low concentration): somewhat higher fluorescent reading than 4b
- Incubation time at which labeling was reaching completion ([2]; 30 micromolar): 60 min
- Glycoprotein labeling on Western blot (anti-biotin-HRP) [3]: Significant glycoprotein labeling was only observed in lysates from cells grown in the presence of Ac4ManNAz
- Staining of azido-containing glycoconjugates (confocal microscopy, avidin-Alexa fluor 488) ([5]; in situ generated, 30 μM, cells grown with Ac4ManNAz 100 μM): staining was only observed at the cell surface
